In PubChem BioAssay (NCI):
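In this assay, cells in 96-well plates receive the compound at five concentrations for 48 hours. Endpoints are linearly interpolated between the surrounding concentrations. GI50: concentration for 50% inhibition of growth. TGI is the concentration that stops growth completely.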

Columns and labels:
Assay in all cases: NCI anticancer screen, dose series, 48 h
KM12 colon = tested on: KM12 colon
SW-620 colon = tested on: SW-620 colon
MALME-3M melanoma = tested on: MALME-3M melanoma
EKVX NSCLC = tested on: EKVX NSCLC
HCC-2998 colon = tested on: HCC-2998 colon
LOX IMVI melanoma = tested on: LOX IMVI melanoma
M14 melanoma = tested on: M14 melanoma
UACC-257 melanoma = tested on: UACC-257 melanoma
SN12C renal = tested on: SN12C renal
UO-31 renal = tested on: UO-31 renal

Structure (SMILES): COC(=O)c1cc(-c2ccc3ccccc3c2)[nH]c(=O)c1C#N
- TGI (KM12 colon): > 100 µM
- TGI (SW-620 colon): > 100 µM
- TGI (MALME-3M melanoma): > 100 µM
- TGI (EKVX NSCLC): > 100 µM
- TGI (HCC-2998 colon): > 100 µM
- TGI (LOX IMVI melanoma): > 100 µM
- TGI (M14 melanoma): > 100 µM
- TGI (UACC-257 melanoma): > 100 µM
- TGI (SN12C renal): > 100 µM
- TGI (UO-31 renal): > 100 µM

Structure (SMILES): CC(=O)OCCOCn1c2ccccc2c2c3c(c4c5ccccc5n(COCCOC(C)=O)c4c21)C(=O)N(Cc1ccccc1)C3=O
- TGI (SW-620 colon): > 100 µM
- TGI (MALME-3M melanoma): > 100 µM
- TGI (EKVX NSCLC): > 100 µM
- TGI (HCC-2998 colon): > 100 µM
- TGI (LOX IMVI melanoma): > 100 µM
- TGI (M14 melanoma): > 100 µM
- TGI (UACC-257 melanoma): > 100 µM
- TGI (SN12C renal): > 100 µM
- TGI (UO-31 renal): > 100 µM

Structure (SMILES): N#CCCN(CCC#N)c1ccc(/C=C(/NC(=O)c2cc([N+](=O)[O-])ccc2Cl)C(=O)N=[N+]=[N-])cc1
- TGI (KM12 colon): > 100 µM
- TGI (SW-620 colon): > 100 µM
- TGI (MALME-3M melanoma): > 100 µM
- TGI (EKVX NSCLC): > 100 µM
- TGI (HCC-2998 colon): > 100 µM
- TGI (LOX IMVI melanoma): > 100 µM
- TGI (M14 melanoma): > 100 µM
- TGI (UACC-257 melanoma): > 100 µM
- TGI (SN12C renal): > 100 µM
- TGI (UO-31 renal): > 100 µM

Structure (SMILES): COc1ccc(-c2nn(-c3cccc(Cl)c3)cc2/C=C2\NC(=S)N(c3ccc(Cl)cc3)C2=O)cc1
- GI50 (KM12 colon): 10.1 µM
- TGI (KM12 colon): > 25 µM
- GI50 (SW-620 colon): 8.51 µM
- TGI (SW-620 colon): > 25 µM
- GI50 (MALME-3M melanoma): 5.03 µM
- TGI (MALME-3M melanoma): 11.3 µM
- GI50 (EKVX NSCLC): 4.32 µM
- TGI (EKVX NSCLC): 15.8 µM
- GI50 (HCC-2998 colon): 7.93 µM
- TGI (HCC-2998 colon): > 25 µM
- GI50 (LOX IMVI melanoma): 5.97 µM
- TGI (LOX IMVI melanoma): > 25 µM
- GI50 (M14 melanoma): 4.39 µM
- TGI (M14 melanoma): 10.2 µM
- GI50 (UACC-257 melanoma): 3.95 µM
- TGI (UACC-257 melanoma): 8.55 µM
- GI50 (SN12C renal): 5.48 µM
- TGI (SN12C renal): > 25 µM
- GI50 (UO-31 renal): 8.53 µM
- TGI (UO-31 renal): > 25 µM

Structure (SMILES): C/C(NNC(=O)c1ccccc1O)=C1\C=Nc2ccccc2S1
- TGI (KM12 colon): > 100 µM
- TGI (SW-620 colon): > 100 µM
- TGI (MALME-3M melanoma): 27.6 µM
- TGI (EKVX NSCLC): > 100 µM
- TGI (HCC-2998 colon): 7.45 µM
- TGI (LOX IMVI melanoma): > 100 µM
- TGI (M14 melanoma): 31.1 µM
- TGI (UACC-257 melanoma): > 100 µM
- TGI (SN12C renal): 55.6 µM
- TGI (UO-31 renal): 5.68 µM

Structure (SMILES): O=C1Cc2c(-c3ccccc3)cc(-c3ccccc3)nc2-c2ccccc2N1
- TGI (KM12 colon): > 100 µM
- TGI (SW-620 colon): 82.5 µM
- TGI (MALME-3M melanoma): > 100 µM
- TGI (EKVX NSCLC): 80.3 µM
- TGI (HCC-2998 colon): 11.5 µM
- TGI (LOX IMVI melanoma): > 100 µM
- TGI (M14 melanoma): 17.5 µM
- TGI (UACC-257 melanoma): > 100 µM
- TGI (SN12C renal): 30.8 µM
- TGI (UO-31 renal): 11.4 µM

Structure (SMILES): COc1cccc(/C=N/[N-]C(=O)c2ccncc2)c1[O-].[Mn+2].[OH3+]
- GI50 (KM12 colon): 8.31 µM
- TGI (KM12 colon): > 100 µM
- GI50 (SW-620 colon): 4.42 µM
- TGI (SW-620 colon): > 100 µM
- GI50 (MALME-3M melanoma): 25.5 µM
- TGI (MALME-3M melanoma): > 100 µM
- GI50 (EKVX NSCLC): 9.25 µM
- TGI (EKVX NSCLC): > 100 µM
- GI50 (HCC-2998 colon): 19 µM
- TGI (HCC-2998 colon): > 100 µM
- GI50 (LOX IMVI melanoma): 6.59 µM
- TGI (LOX IMVI melanoma): > 100 µM
- GI50 (M14 melanoma): 7.96 µM
- TGI (M14 melanoma): 52.4 µM
- GI50 (UACC-257 melanoma): 5.05 µM
- TGI (UACC-257 melanoma): 96.2 µM
- GI50 (SN12C renal): 17.8 µM
- TGI (SN12C renal): > 100 µM
- GI50 (UO-31 renal): 3.83 µM
- TGI (UO-31 renal): 26.5 µM

Structure (SMILES): CCCCCCCCCCC(=O)CCCCCCC(=O)O
- TGI (KM12 colon): 29.9 µM
- TGI (SW-620 colon): 55.7 µM
- TGI (MALME-3M melanoma): 45 µM
- TGI (EKVX NSCLC): > 100 µM
- TGI (HCC-2998 colon): 36.1 µM
- TGI (LOX IMVI melanoma): 31.4 µM
- TGI (M14 melanoma): 47.9 µM
- TGI (UACC-257 melanoma): > 100 µM
- TGI (SN12C renal): 75.2 µM
- TGI (UO-31 renal): 71.9 µM

Structure (SMILES): CN(C)c1ccc(/C=C/C(=O)c2ccc(Nc3nc(Nc4ccc(F)cc4)nc(Nc4ccc(F)cc4)n3)cc2)cc1
- GI50 (KM12 colon): 19 µM
- TGI (KM12 colon): 75.2 µM
- GI50 (SW-620 colon): 18 µM
- TGI (SW-620 colon): 46 µM
- GI50 (MALME-3M melanoma): 19.1 µM
- TGI (MALME-3M melanoma): 78.9 µM
- GI50 (EKVX NSCLC): 19.9 µM
- TGI (EKVX NSCLC): 83 µM
- GI50 (HCC-2998 colon): 11 µM
- TGI (HCC-2998 colon): 32.5 µM
- GI50 (LOX IMVI melanoma): 19 µM
- TGI (LOX IMVI melanoma): 50.7 µM
- GI50 (M14 melanoma): 11.2 µM
- TGI (M14 melanoma): 34.6 µM
- GI50 (UACC-257 melanoma): 22.5 µM
- TGI (UACC-257 melanoma): 90.9 µM
- GI50 (SN12C renal): 43 µM
- TGI (SN12C renal): > 100 µM
- GI50 (UO-31 renal): 15.2 µM
- TGI (UO-31 renal): 40.4 µM

Structure (SMILES): COc1ccc(C(c2ccccc2C(=O)O)c2ccc(OC)c3ccccc23)c2ccccc12
- TGI (KM12 colon): 23.1 µM
- TGI (SW-620 colon): 44.4 µM
- TGI (MALME-3M melanoma): 27.9 µM
- TGI (EKVX NSCLC): 49.8 µM
- TGI (HCC-2998 colon): 19.8 µM
- TGI (LOX IMVI melanoma): 50.6 µM
- TGI (M14 melanoma): 33 µM
- TGI (UACC-257 melanoma): 24.5 µM
- TGI (SN12C renal): 29.7 µM
- TGI (UO-31 renal): 19.4 µM

Structure (SMILES): O=CC(OC(=O)c1ccccc1)C(OC(=O)c1ccccc1)C(COC(c1ccccc1)(c1ccccc1)c1ccccc1)OC(=O)c1ccccc1 (centres undefined)
- GI50 (KM12 colon): 14.3 µM
- TGI (KM12 colon): 31 µM
- GI50 (SW-620 colon): 5.13 µM
- TGI (SW-620 colon): 20.7 µM
- GI50 (MALME-3M melanoma): 30.3 µM
- TGI (MALME-3M melanoma): 95.2 µM
- GI50 (EKVX NSCLC): 19.6 µM
- TGI (EKVX NSCLC): 61.5 µM
- GI50 (HCC-2998 colon): 17.4 µM
- TGI (HCC-2998 colon): 31.5 µM
- GI50 (LOX IMVI melanoma): 11 µM
- TGI (LOX IMVI melanoma): 27.3 µM
- GI50 (M14 melanoma): 14 µM
- TGI (M14 melanoma): 30.3 µM
- GI50 (UACC-257 melanoma): 13.9 µM
- TGI (UACC-257 melanoma): 34.4 µM
- GI50 (SN12C renal): 17.4 µM
- TGI (SN12C renal): 47.9 µM
- GI50 (UO-31 renal): 10.8 µM
- TGI (UO-31 renal): 31.2 µM

Structure (SMILES): Cc1cc(S(=O)(=O)/N=C(\N)Nc2cccc(O)c2)c(SCc2ccccc2)cc1Cl
- GI50 (KM12 colon): 15.6 µM
- TGI (KM12 colon): 54.4 µM
- GI50 (SW-620 colon): 29.3 µM
- TGI (SW-620 colon): > 100 µM
- GI50 (MALME-3M melanoma): 27.9 µM
- TGI (MALME-3M melanoma): 63.9 µM
- GI50 (EKVX NSCLC): 12.7 µM
- TGI (EKVX NSCLC): 37.2 µM
- GI50 (HCC-2998 colon): 32.6 µM
- TGI (HCC-2998 colon): 65.1 µM
- GI50 (LOX IMVI melanoma): 20.5 µM
- TGI (LOX IMVI melanoma): 66.8 µM
- GI50 (M14 melanoma): 11.1 µM
- TGI (M14 melanoma): 26.7 µM
- GI50 (UACC-257 melanoma): 17.7 µM
- TGI (UACC-257 melanoma): 35.1 µM
- GI50 (SN12C renal): 17.6 µM
- TGI (SN12C renal): 38.2 µM
- GI50 (UO-31 renal): 10.8 µM
- TGI (UO-31 renal): 27.6 µM
